# Laboratory results from US10681909B2, “Herbicidal triazoles” (FMC Corporation, priority 2014, dated 2020).
# What was measured:
# bromegrass, down = experiment: Test D postemergence; assay type: in vivo, Bromus tectorum; details: scale 0 to 100
# Source text: (§1) Seeds of plant species selected from bluegrass (annual bluegrass, Poa annua), blackgrass (Alopecurus myosuroides), canarygrass (Phalaris minor), chickweed (common chickweed, Stellaria media), galium (catchweed bedstraw, Galium aparine), bromegrass, down (downy bromegrass, Bromus tectorum), Russian thistle (Salsola kali), field poppy (Papaver rhoeas), field violet (Viola arvensis), foxtail, green (green foxtail, Setaria viridis), deadnettle (henbit deadnettle, Lamium amplexicaule), ryegrass, Ital. (Italian ryegrass, Lolium multiflorum), kochia (Kochia scoparia), lambsquarters (Chenopodium album), oilseed rape (Brassica napus), pigweed (Amaranthus retroflexus), chamomile (scentless chamomile, Matricaria inodora), speedwell (bird's-eye speedwell, Veronica persica), barley, spring (spring barley, Hordeum vulgare), wheat, spring (spring wheat, Triticum aestivum), buckwheat, wild (wild buckwheat, Polygonum convolvulus), wild mustard (Sinapis arvensis), oat, wild (wild oat, Avena fatua), radish, wild (wild radish, Raphanus raphanistrum), […]), barley, winter (winter barley, Hordeum vulgare), and wheat, winter (winter wheat, Triticum aestivum) were planted into a silt loam soil and treated preemergence with test chemicals formulated in a non-phytotoxic solvent mixture which included a surfactant. At the same time, these species were planted in pots containing Sunshine Redi-Earth® planting medium comprising spaghnum peat moss, vermiculite, starter nutrients and dolomitic limestone and treated with postemergence applications of the test chemicals formulated in the same manner. Plants ranged in height from 2 to 18 cm (1- to 4-leaf stage). Treated plants and controls were maintained in a controlled growth environment for 14 to 21 d after which time all species were compared to controls and visually evaluated. […] A dash (-) response means no test result.
# barley, spring = experiment: Test D postemergence; assay type: in vivo, Hordeum vulgare; details: scale 0 to 100
# Source text: as §1
# barley, winter = experiment: Test D postemergence; assay type: in vivo, Hordeum vulgare; details: scale 0 to 100
# Source text: as §1
# chickweed = experiment: Test D postemergence; assay type: in vivo, Stellaria media; details: scale 0 to 100
# Source text: as §1
# bluegrass = experiment: Test D postemergence; assay type: in vivo, Poa annua; details: scale 0 to 100
# Source text: as §1
# galium [1] = experiment: Test D preemergence; assay type: in vivo, Galium aparine; details: for Plant response rating: Galium: scale 0 to 100
# Source text: as §1
# galium [2] = experiment: Test C preemergence; assay type: in vivo, Galium aparine; details: for Plant response rating (scale of 0 to 100 where 0 is no effect and 100 is complete control): Galium, preemergence; for Galium plant response rating (0 to 100): Preemergence, visual rating after 13 to 15 d
# Summary of the method: (§2)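 Plants are treated postemergence at the 1- to 4-leaf stage (2 to 18 cm), grown in sphagnum peat/vermiculite medium; preemergence treatment is applied to seed planted in loam soil with sand. Both use test chemical in a non-phytotoxic solvent mixture with surfactant.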
# velvetleaf = experiment: Test A preemergence; assay type: in vivo, Abutilon theophrasti; details: Abutilon theophrasti, pre-emergence, 240 h, 0 to 100 scale (0 no effect, 100 complete control), read-out: Plant response rating, Velvetleaf
# Summary of the method: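 Loam/sand soil mix; compound in non-phytotoxic solvent + surfactant. Pre: directed soil spray right after planting seed. Post: potted plants 2–10 cm, 1–2 leaf stage, sprayed with same formulation.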
# pigweed = experiment: Test C preemergence; assay type: in vivo, Amaranthus retroflexus; details: for Plant response rating (scale of 0 to 100 where 0 is no effect and 100 is complete control): Pigweed, preemergence; for Pigweed plant response rating (0 to 100): Preemergence, visual rating after 13 to 15 d
# Summary of the method: as §2
# speedwell = experiment: Test D preemergence; assay type: in vivo, Veronica persica; details: for Plant response rating: Speedwell: scale 0 to 100
# Source text: as §1
# morningglory = experiment: Test C preemergence; assay type: in vivo, Ipomoea coccinea; details: for Plant response rating (scale of 0 to 100 where 0 is no effect and 100 is complete control): Morningglory, preemergence; for Morningglory plant response rating (0 to 100): Preemergence, visual rating after 13 to 15 d
# Summary of the method: as §2
# chamomile = experiment: Test D preemergence; assay type: in vivo, Matricaria inodora; details: for Plant response rating: Chamomile: scale 0 to 100
# Source text: as §1
# foxtail, green = experiment: Test D postemergence; assay type: in vivo, Setaria viridis; details: scale 0 to 100
# Source text: as §1
# [3] = 16 g ai/ha, 0 is no effect, 100 is complete control
structure (smiles),measurement,setting,value
"CCOc1nc(-c2ccc(F)cc2)nn1Cc1ccnc(C(F)(F)F)c1 [Compound 8, 4-[[5-ethoxy-3-(4-fluorophenyl)-1H-1,2,4-triazol-1-yl]methyl]-2-(trifluoromethyl)pyridine]","Plant response rating: Bromegrass, Down","bromegrass, down; 31 g ai/ha",35
same,"Plant response rating: Bromegrass, Down","bromegrass, down; 62 g ai/ha",45
same,"Plant response rating: Bromegrass, Down","bromegrass, down; 125 g ai/ha",55
same,"Plant response rating: Bromegrass, Down","bromegrass, down; 250 g ai/ha",60
same,"Plant response rating: Barley, Spring","barley, spring; 31 g ai/ha",25
same,"Plant response rating: Barley, Spring","barley, spring; 62 g ai/ha",30
same,"Plant response rating: Barley, Spring","barley, spring; 125 g ai/ha",35
same,"Plant response rating: Barley, Spring","barley, spring; 250 g ai/ha",35
same,"Plant response rating: Barley, Winter","barley, winter; 31 g ai/ha",20
same,"Plant response rating: Barley, Winter","barley, winter; 62 g ai/ha",30
same,"Plant response rating: Barley, Winter","barley, winter; 125 g ai/ha",35
same,"Plant response rating: Barley, Winter","barley, winter; 250 g ai/ha",35
same,Plant response rating: Chickweed,chickweed; 31 g ai/ha,80
same,Plant response rating: Chickweed,chickweed; 62 g ai/ha,85
same,Plant response rating: Chickweed,chickweed; 125 g ai/ha,85
same,Plant response rating: Chickweed,chickweed; 250 g ai/ha,90
same,Plant response rating: Bluegrass,bluegrass; 31 g ai/ha,55
same,Plant response rating: Bluegrass,bluegrass; 62 g ai/ha,65
same,Plant response rating: Bluegrass,bluegrass; 125 g ai/ha,75
same,Plant response rating: Bluegrass,bluegrass; 250 g ai/ha,75
same,Plant response rating: Galium,galium [1]; 62 g ai/ha,35
same,Plant response rating: Galium,galium [1]; 125 g ai/ha,50
same,Plant response rating: Galium,galium [1]; 250 g ai/ha,70
same,Plant response rating (scale of 0 to 100 where 0 is no effect and 100 is complete control),galium [2]; 125 g ai/ha,100
same,Plant response rating (scale of 0 to 100 where 0 is no effect and 100 is complete control),galium [2]; 250 g ai/ha,100
same,Galium plant response rating (0 to 100),galium [2]; 31 g ai/ha,80
same,Galium plant response rating (0 to 100),galium [2]; 62 g ai/ha,100
same,pest or weed control at 125 g/ha,velvetleaf; 125 g ai/ha,70%
same,pest or weed control at 500 g/ha,"velvetleaf; 500 g ai/ha, approx. 10 d",90%
same,Plant response rating (scale of 0 to 100 where 0 is no effect and 100 is complete control),pigweed; 125 g ai/ha,100
same,Plant response rating (scale of 0 to 100 where 0 is no effect and 100 is complete control),pigweed; 250 g ai/ha,100
same,Pigweed plant response rating (0 to 100),pigweed; 31 g ai/ha,100
same,Pigweed plant response rating (0 to 100),pigweed; 62 g ai/ha,100
same,Plant response rating: Speedwell,speedwell; 62 g ai/ha,100
same,Plant response rating: Speedwell,speedwell; 125 g ai/ha,100
same,Plant response rating: Speedwell,speedwell; 250 g ai/ha,100
same,Plant response rating (scale of 0 to 100 where 0 is no effect and 100 is complete control),morningglory; 125 g ai/ha,98
same,Plant response rating (scale of 0 to 100 where 0 is no effect and 100 is complete control),morningglory; 250 g ai/ha,100
same,Morningglory plant response rating (0 to 100),morningglory; 31 g ai/ha,85
same,Morningglory plant response rating (0 to 100),morningglory; 62 g ai/ha,100
same,Plant response rating: Chamomile,chamomile; 31 g ai/ha,10
same,Plant response rating: Chamomile,chamomile; 62 g ai/ha,30
same,Plant response rating: Chamomile,chamomile; 125 g ai/ha,100
same,Plant response rating: Chamomile,chamomile; 250 g ai/ha,100
same,"Plant response rating: Foxtail, Green","foxtail, green; 31 g ai/ha",40
same,"Plant response rating: Foxtail, Green","foxtail, green; 62 g ai/ha",75
same,"Plant response rating: Foxtail, Green","foxtail, green; 125 g ai/ha",75
same,"Plant response rating: Foxtail, Green","foxtail, green; 250 g ai/ha",85
Fc1ccc(-c2nc(OCC(F)(F)F)n(Cc3ccnc(C(F)(F)F)c3)n2)cc1 [Compound 30],"Plant response rating: Bromegrass, Down","bromegrass, down; 16 g ai/ha",30
same,"Plant response rating: Bromegrass, Down","bromegrass, down; 31 g ai/ha",45
same,"Plant response rating: Bromegrass, Down","bromegrass, down; 62 g ai/ha",65
same,"Plant response rating: Bromegrass, Down","bromegrass, down; 125 g ai/ha",65
same,"Plant response rating: Barley, Spring","barley, spring; 16 g ai/ha",30
same,"Plant response rating: Barley, Spring","barley, spring; 31 g ai/ha",40
same,"Plant response rating: Barley, Spring","barley, spring; 62 g ai/ha",35
same,"Plant response rating: Barley, Spring","barley, spring; 125 g ai/ha",45
same,"Plant response rating: Barley, Winter","barley, winter; 16 g ai/ha",20
same,"Plant response rating: Barley, Winter","barley, winter; 31 g ai/ha",25
same,"Plant response rating: Barley, Winter","barley, winter; 62 g ai/ha",30
same,"Plant response rating: Barley, Winter","barley, winter; 125 g ai/ha",40
same,Plant response rating: Chickweed,chickweed; 16 g ai/ha,70
same,Plant response rating: Chickweed,chickweed; 31 g ai/ha,80
same,Plant response rating: Chickweed,chickweed; 62 g ai/ha,100
same,Plant response rating: Chickweed,chickweed; 125 g ai/ha,100
same,Plant response rating: Bluegrass,bluegrass; 16 g ai/ha,65
same,Plant response rating: Bluegrass,bluegrass; 31 g ai/ha,70
same,Plant response rating: Bluegrass,bluegrass; 62 g ai/ha,75
same,Plant response rating: Bluegrass,bluegrass; 125 g ai/ha,80
same,"Plant response rating (0 to 100), Galium",galium [1]; [3],70
same,Plant response rating: Galium,galium [1]; 62 g ai/ha,80
same,Plant response rating: Galium,galium [1]; 125 g ai/ha,85
same,Plant response rating (scale of 0 to 100 where 0 is no effect and 100 is complete control),galium [2]; 125 g ai/ha,95
same,Plant response rating (scale of 0 to 100 where 0 is no effect and 100 is complete control),galium [2]; 250 g ai/ha,95
same,Galium plant response rating (0 to 100),galium [2]; 31 g ai/ha,60
same,Galium plant response rating (0 to 100),galium [2]; 62 g ai/ha,65
same,Plant response rating (scale of 0 to 100 where 0 is no effect and 100 is complete control),pigweed; 125 g ai/ha,100
same,Plant response rating (scale of 0 to 100 where 0 is no effect and 100 is complete control),pigweed; 250 g ai/ha,100
same,Pigweed plant response rating (0 to 100),pigweed; 31 g ai/ha,100
same,Pigweed plant response rating (0 to 100),pigweed; 62 g ai/ha,100
same,"Plant response rating (0 to 100), Speedwell",speedwell; [3],100
same,Plant response rating: Speedwell,speedwell; 62 g ai/ha,100
same,Plant response rating: Speedwell,speedwell; 125 g ai/ha,100
same,Plant response rating (scale of 0 to 100 where 0 is no effect and 100 is complete control),morningglory; 125 g ai/ha,60
same,Plant response rating (scale of 0 to 100 where 0 is no effect and 100 is complete control),morningglory; 250 g ai/ha,90
same,Morningglory plant response rating (0 to 100),morningglory; 31 g ai/ha,35
same,Morningglory plant response rating (0 to 100),morningglory; 62 g ai/ha,35
same,"Plant response rating (0 to 100), Chamomile",chamomile; [3],30
same,Plant response rating: Chamomile,chamomile; 31 g ai/ha,40
same,Plant response rating: Chamomile,chamomile; 62 g ai/ha,100
same,Plant response rating: Chamomile,chamomile; 125 g ai/ha,100
same,"Plant response rating: Foxtail, Green","foxtail, green; 16 g ai/ha",55
same,"Plant response rating: Foxtail, Green","foxtail, green; 31 g ai/ha",75
same,"Plant response rating: Foxtail, Green","foxtail, green; 62 g ai/ha",85
same,"Plant response rating: Foxtail, Green","foxtail, green; 125 g ai/ha",90
